The values below come from patent publication US20250228983A1, “PROBES FOR CELLULAR SENESCENCE” (UNIVERSITY OF FLORIDA RESEARCH FOUNDATION, INCORPORATED, priority 2022, published 2025).

Experiment [1] addresses recombinant β-galactosidase (β-gal) (Escherichia coli, UniProt P00722). In words: In gel fluorescence labeling efficiency on recombinant β-galactosidase. It counts as biochemical. Conditions: 10 μM probe, 10 units β-gal and/or 50 μg BSA, 50 μL PBS, 37° C., 2 h; compared with NIR-BG2. As for the experimental part:
(§1) FIG. 4. Compare labeling efficiency using in gel fluorescence. 10 μM of NIR-BG2, NIR-BG3 or NIR-BG4 is incubated with 10 units of β-gal and/or 50 μg of BSA in total volume of 50 μL PBS solution were incubated at 37° C. for 2 h. Each lane was loaded with 10 μL of the reaction solution.
(§2) In certain examples, two carbamate analogues were synthesized: NIR-BG3 carrying ethyl carbamate and NIR-BG4 carrying an endocyclic carbamate. To compare these two analogues with NIR-BG2, the three probes were incubated with recombinant β-galactosidase (p-gal) and bovine serum albumin (BSA) and the labeling efficiency of these probes on P-gal and BSA was compared using gel electrophoresis.

The target of experiment [2] is bovine serum albumin (BSA) (Bos taurus, UniProt P02769). In words: In gel fluorescence nonspecific labeling of BSA. The experiment is classed as biochemical. The note with it: 10 μM probe, 50 μg BSA, 50 μL PBS, 37° C., 2 h; compared with NIR-BG2. The protocol: as §1, §2
bovine serum albumin (BSA), sequence (P02769 25-607): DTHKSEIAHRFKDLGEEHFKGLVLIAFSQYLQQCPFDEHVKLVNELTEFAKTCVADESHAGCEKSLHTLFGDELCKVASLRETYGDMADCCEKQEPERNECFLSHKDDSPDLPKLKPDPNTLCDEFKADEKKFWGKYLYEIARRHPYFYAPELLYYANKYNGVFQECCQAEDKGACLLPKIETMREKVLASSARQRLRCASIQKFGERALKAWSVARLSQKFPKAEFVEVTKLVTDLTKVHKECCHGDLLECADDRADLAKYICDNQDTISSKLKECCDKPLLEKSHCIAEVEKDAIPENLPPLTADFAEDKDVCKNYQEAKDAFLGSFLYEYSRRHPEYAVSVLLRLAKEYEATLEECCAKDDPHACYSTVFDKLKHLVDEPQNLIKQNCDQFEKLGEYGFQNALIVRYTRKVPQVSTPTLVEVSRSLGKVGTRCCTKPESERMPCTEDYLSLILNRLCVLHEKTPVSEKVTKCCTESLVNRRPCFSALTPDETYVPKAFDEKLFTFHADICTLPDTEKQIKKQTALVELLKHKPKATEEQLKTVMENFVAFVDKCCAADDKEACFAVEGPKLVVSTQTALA
Experiment [3] relates to CT26.WT and CT26.CL25 cells (stably transfected with LacZ). Kind of experiment: Fluorescent cell imaging and flow cytometry of CT26.WT and CT26.CL25 cells. The experiment is classed as cell-based. The note with it: 10 μM probe. As for the experimental part:
FIG. 5. FIG. 5A: Fluorescent cell imaging of CT26. WT and CT26.CL25 cells after incubating with 10 μM of NIR-BG2 or NIR-BG3 in serum free medium for 2 hours at 37° C. Cells were fixed, permeabilized with 0.5% Triton X-100 and stained with DAPI. Scale bar: […]. FIG. 5B: Flow cytometry and FIG. 5C quantification of fluorescence in CT26.WT and CT26.CL25 cells after incubating with 10 μM of NIR-BG2 or NIR-BG3.
NIR-BG2 and NIR-BG3 were also compared in CT26.WT and CT26.CL25 that are stably transfected with LacZ.
(Flow cytometry measures light scatter and fluorescence of single cells or particles in a stream.)

The structures appear in SMILES notation.

recombinant β-galactosidase (β-gal), sequence (P00722 2-1024): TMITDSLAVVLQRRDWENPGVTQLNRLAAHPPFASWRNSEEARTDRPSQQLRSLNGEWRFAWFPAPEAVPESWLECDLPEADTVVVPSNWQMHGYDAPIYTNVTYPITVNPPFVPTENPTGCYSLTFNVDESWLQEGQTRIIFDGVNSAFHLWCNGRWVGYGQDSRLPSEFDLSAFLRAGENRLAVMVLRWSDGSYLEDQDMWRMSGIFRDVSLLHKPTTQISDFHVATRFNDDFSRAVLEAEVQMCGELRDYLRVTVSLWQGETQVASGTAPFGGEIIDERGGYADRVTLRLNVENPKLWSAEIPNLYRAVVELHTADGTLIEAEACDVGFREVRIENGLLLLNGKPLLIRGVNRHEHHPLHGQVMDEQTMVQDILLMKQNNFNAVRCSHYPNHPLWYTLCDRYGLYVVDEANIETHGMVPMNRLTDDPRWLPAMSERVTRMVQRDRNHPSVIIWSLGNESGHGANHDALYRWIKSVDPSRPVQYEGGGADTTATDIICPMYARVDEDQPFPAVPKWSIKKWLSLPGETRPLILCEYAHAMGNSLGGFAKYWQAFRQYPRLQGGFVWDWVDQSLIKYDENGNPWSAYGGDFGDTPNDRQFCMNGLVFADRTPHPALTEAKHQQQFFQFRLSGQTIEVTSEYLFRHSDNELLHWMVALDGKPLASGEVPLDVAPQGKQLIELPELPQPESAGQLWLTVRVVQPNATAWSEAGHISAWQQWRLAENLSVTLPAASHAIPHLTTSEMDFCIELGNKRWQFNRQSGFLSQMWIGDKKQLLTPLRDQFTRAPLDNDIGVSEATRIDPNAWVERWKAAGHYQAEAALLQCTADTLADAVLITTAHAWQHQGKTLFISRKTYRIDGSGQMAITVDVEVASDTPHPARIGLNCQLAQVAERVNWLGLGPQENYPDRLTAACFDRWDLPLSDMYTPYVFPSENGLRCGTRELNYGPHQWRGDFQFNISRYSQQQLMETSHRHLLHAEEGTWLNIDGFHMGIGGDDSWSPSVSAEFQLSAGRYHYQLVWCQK

`CCC[N+]1=C(/C=C/C2=C3Oc4cc(OCc5ccc(O[C@@H]6OC(CO)[C@H](O)[C@H](O)C6O)cc5)c(COC(=O)NCC)cc4C=C3CCC2)C(C)(C)c2ccccc21` (stereo partly drawn) [NIR-BG3]: in experiment [1], the “labeling efficiency (in gel fluorescence)” value is given as “significantly higher labeling efficiency”. The “nonspecific labeling of BSA” value in experiment [2] was “slightly higher nonspecific labeling of BSA”. Further, the “contrast for CT26.CL25 cells over CT26.WT” value in experiment [3] (serum free medium, 2 hours, 37° C.) is on record as “strong contrast”. Further, the “mean intensity compared to NIR-BG2” value in experiment [3] (FIG. 5) was “about 2 fold”. Besides, in experiment [3] (compared with NIR-BG2), the “background by flow cytometry” value is recorded as “higher background”; the “fluorescence by flow cytometry” value is reported as “overall higher fluorescence”; the “fluorescent intensity (FIG. 5A and FIG. 5C)” value is given as “much higher than NIR-BG2”.
Turning to `CCC[N+]1=C(/C=C/C2=C3Oc4cc(OCc5ccc(O[C@@H]6OC(CO)[C@H](O)[C@H](O)C6O)cc5)c(COC(=O)N5CCCCC5)cc4C=C3CCC2)C(C)(C)c2ccccc21` (stereo partly drawn) [NIR-BG4], in experiment [1], the “labeling efficiency (in gel fluorescence)” value is listed as “significantly higher labeling efficiency”. For the same molecule, the “nonspecific labeling of BSA” value in experiment [2] was “slightly higher nonspecific labeling of BSA”.
